For experiment [1], the system named is bone marrow-derived DCs. The experiment is described as follows: DC viability/lifespan by FACS of 7-AAD staining of CD11c+ cells. The format is cell-based, mouse. The note with it: treatment alone, no LPS; data not shown. Here is the method:
(§1) FIG. 1. Inhibition of mTOR expression prolongs DC lifespan and promotes expression of costimulatory molecules CD40 and CD86. (A) DCs were pulsed with Pam2CSK4, LPS, R848, or CpG for 6 hours and then washed and cultured in complete medium. Cell viability was monitored daily by FACS analysis of 7-AAD staining of CD11c^+ cells. (B) Western blot for mTOR and β-actin protein in Luciferase hpRNA (Luc^hp) or mTOR hpRNA (mTOR^hp)-transduced DCs. (C) DCs were stimulated with media alone, LPS, or rapamycin+LPS for 30 minutes. Cells were subsequently fixed and stained for phosphorylated S6 protein as a molecular readout for mTOR activation and analyzed by FACS. (D) Luc^hp and mTOR^hp-transduced DCs were left untreated or stimulated with LPS and monitored daily for cell viability by analysis of 7-AAD staining of CD11c^+ cells. (E) Luc^hp or mTOR^hp DCs were cultured with or without LPS for 24 hours and analyzed by FACS for CD40 and CD86 expression. […]
(§2) FIG. 2. […] Cells were monitored daily for cell viability as described for FIG. 1. […] (B) DCs were unstimulated or stimulated with LPS, RAP+LPS, or KU+LPS and analyzed by FACS 24 hours later for CD40 and CD86 expression. […] (C) DCs were treated as in (B) and analyzed daily by FACS for CD40 and CD86 expression gated on live CD11c^+ cells. […]

Experiment [2] concerns bone marrow-derived DCs. The experiment is described as follows: Costimulatory molecule expression on DCs by FACS. The format is cell-based, mouse. Here is the method:
as §1, §2

The test system of experiment [3] is mTORC2-mediated Akt phosphorylation. The experiment is described as follows: Activation-induced Akt Ser473 phosphorylation in DCs. The format is cell-based, mouse.
The next experiment has as its system human myeloid DCs. The experiment is described as follows: Costimulatory molecule expression in human myeloid DCs by FACS. The experiment is classed as cell-based. To be noted: R848 1 μg/mL, inhibitors 100 nM. Here is the method: FIG. 3. Pharmacological inhibition of mTOR augments the duration of costimulatory molecule expression in human myeloid DCs. (A) Human myeloid DCs were either unstimulated or stimulated with R848 in the presence or absence of rapamycin (RAP) or KU. CD40 and CD86 expression was analyzed by FACS. Day 4 costimulatory molecule expression from a representative donor (5430) is depicted. (B) DCs were treated as in (A) and analyzed daily by FACS for CD40 and CD86 expression. (C) DCs were treated as in (A) and analyzed for viability at indicated times by FACS analysis of 7-AAD staining. For each treatment, data from 4-6 individual donors is depicted.
Human DC Culture: Human myeloid DCs were isolated from human blood using MACS positive selection beads. In brief, filters from hospital blood donors were generously donated by the CVPH Medical Center in Plattsburgh, N.Y. Blood cells were obtained by reverse flushing filters in sterile HBSS. PBMCs were obtained by centrifugation of blood samples over Ficoll-Paque Plus (density 1.077 g/mL) (GE Healthcare). Myeloid DCs were enriched using the BDCA-1 Positive Selection DC Islation Kit (Miltenyi Bioscience) per the manufacturer's instructions. […] At indicated times, DCs were harvested and analyzed by FACS for maturation markers.
(In general: Flow cytometry measures light scatter and fluorescence of single cells or particles in a stream.)

SMILES strings stand for the structures.

As to `COc1ccc(-c2ccc3c(N4CCOCC4)nc(N4C[C@@H](C)O[C@@H](C)C4)nc3n2)cc1CO` [KU, KU 0063794], the “viability of unstimulated DCs” value in the experiment with bone marrow-derived DCs [1] was “did not impact”. For the same molecule, the “duration of expression of CD40 and CD86 in response to LPS” value in the experiment on bone marrow-derived DCs [2] (analyzed daily, live CD11c+ cells) is reported as “prolonged”. In addition, the “percentage of DCs expressing CD40 and CD86” value in the experiment on bone marrow-derived DCs [2] (during LPS stimulation, 24 hours, inhibitors 100 nM) was “increase”. In experiment [3], the “activation induced Akt Ser473 phosphorylation” value is recorded as “inhibited”. Moreover, the “costimulatory molecule expression (CD40, CD86) in response to R848” value in the experiment on human myeloid DCs is listed as “enhanced”.

These data come from patent publication US20140037606A1, “CELL-BASED, ANTI-CANCER VACCINES” (priority 2012, published 2014).
